# Results from US7692002B2, “Metal complexes having vitamin B12 as a ligand” (University of Zurich, priority 2004, dated 2010).
# System: mouse melanoma cell line (B16F1)
# Test: Cytotoxicity tests with a mouse melanoma cell line (B16F1)
# Format: cell-based
# Settings: B16F1 mouse melanoma cells, concentration of 100 μM
substance,measurement,value
Cyanocobalamin [vitamin B12],proliferation inhibition,no effect at all
